Assay results published in article PMC10893103, “Cyclodextrin-Enabled Enantioselective Complexation Study of Cathinone Analogs” (Molecules, 2024).

Experiment: Affinity capillary electrophoresis (ACE), pH 7.4
Settings: 30 mM phosphate buffer pH 7.4, 25 °C, 15 kV
From the text: To assess the CD complex formation capability of the five cathinone derivatives, we devised a screening ACE method tailored to closely mimic physiological conditions. In a preliminary study, the ACE conditions were optimized regarding the type, pH, and concentration of the background electrolyte, the applied voltage, and the injection parameters. […] In order to avoid high Joule heat generation, sufficiently low voltage should be used; thus, after registering the Ohm plot (I-U plot), it was set to 15 kV. Throughout our ACE measurements, corrections for viscosity and ionic strength were systematically implemented to ensure precise determination of complex stability constants.
The CE experiments were performed on a HP ^3DCE and on an Agilent 7100 instrument (Agilent Technologies, Waldbronn, Germany) equipped with a photodiode array detector and the Chemstation software for data handling. Untreated fused silica capillaries (50 µm id, 48.5 cm total, 40 cm effective length) were purchased from Agilent. Conditioning of new capillary was conducted by flushing with 1 M NaOH followed by 0.1 M NaOH and water for 30 min each. Prior to all runs, the capillary was preconditioned by rinsing with BGE (2 min). The temperature of the capillary was set to 25 °C. UV detection was performed at 215 nm, and 15–25 kV voltage was applied. Samples were injected hydrodynamically (150 mbar·sec, optimized in the 50–500 mbar·sec range). The CE-pH measurements were carried out applying 25 kV voltage and 200 mbar·sec injection.
The background electrolyte of the CE-pH measurements contained 25 mM Na2HPO4 and 25 mM Na2B4O7, and the appropriate pH was adjusted with hydrochloric acid. During the ACE measurements, 30 mM phosphate buffer pH 7.4 (30 mM Na2HPO4—NaOH) was used. The running buffer was 20 mM acetic acid adjusting with 1 M Tris the pH to 4.5 during the chiral screening experiments. The BGEs contained CDs at various concentrations (0.25–20 mM) in the ACE experiments and 1-5-10 mM in the chiral method optimization experiments.
Stock solutions of each cathinone analog (mephedrone, flephedrone, 4-MEC, butylone, and MDPV) were prepared separately in methanol (1 mg/ml), and appropriate dilutions with water were used to prepare sample solutions for the CE-pH titration and for the ACE studies applying DMSO as EOF marker, while their mixture was used during the chiral separation studies.
The simplest way to determine the mobility is from the migration times (tmax) read from the electropherograms from which the apparent mobility could be calculated, but more accurate mobility values could be obtained by the determination with the Haarhoff–van der Linde (HVL) function based on Equation (2). (2) HVLδ(t;a0,a1,a2,a3δ)=a0/a2a3δ2πexp[−1/2(t−a1/a2)^2]/1/exp(a3δ)−1+1/2[1+erf(t−a1/2a2)] where a0 is the area of the HVL function, a1 is the position of the Gaussian component, a2 is the standard deviation of the Gaussian component, and a3δ is the peak shape distortion. The application of the HVL function is necessary in the case of accurate ACE measurements because, in several cases, the peaks are distorted due to the complex formation, which makes reading the migration times and calculating the mobility more difficult and imprecise.
The most popular technique for quantifying the analyte–ligand interaction with CE is mobility shift ACE.

Row | Molecule | Mephedrone–CD complex stability constant, Kstab/Kstab1 (unresolved or first migrating enantiomer) | Flephedrone–CD complex stability constant, Kstab2 (second migrating enantiomer) | Flephedrone–CD complex stability constant, Kstab/Kstab1 (unresolved or first migrating enantiomer) | MDPV–CD complex stability constant, Kstab2 (second migrating enantiomer) | 4-MEC–CD complex stability constant, Kstab2 (second migrating enantiomer) | 4-MEC–CD complex stability constant, Kstab/Kstab1 (unresolved or first migrating enantiomer) | Butylone–CD complex stability constant, Kstab/Kstab1 (unresolved or first migrating enantiomer) | MDPV–CD complex stability constant, Kstab/Kstab1 (unresolved or first migrating enantiomer) | Butylone–CD complex stability constant, Kstab2 (second migrating enantiomer) | Mephedrone–CD complex stability constant, Kstab2 (second migrating enantiomer)
1 | O=C(O)CCSC[C@H]1O[C@@H]2O[C@H]3[C@H](O)[C@@H](O)[C@@H](O[C@H]4[C@H](O)[C@@H](O)[C@@H](O[C@H]5[C@H](O)[C@@H](O)[C@@H](O[C@H]6[C@H](O)[C@@H](O)[C@@H](O[C@H]7[C@H](O)[C@@H](O)[C@@H](O[C@H]1[C@H](O)[C@H]2O)O[C@@H]7CSCCC(=O)O)O[C@@H]6CSCCC(=O)O)O[C@@H]5CSCCC(=O)O)O[C@@H]4CSCCC(=O)O)O[C@@H]3CSCCC(=O)O [SAX, hexakis-(6-deoxy-6-(2-carboxyethyl)thio)-α-CD] | 530 ± 45 M⁻¹ | – | – | – | – | – | – | – | – | –
2 | O=C(O)CCSC[C@H]1O[C@@H]2O[C@H]3[C@H](O)[C@@H](O)[C@@H](O[C@H]4[C@H](O)[C@@H](O)[C@@H](O[C@H]5[C@H](O)[C@@H](O)[C@@H](O[C@H]6[C@H](O)[C@@H](O)[C@@H](O[C@H]7[C@H](O)[C@@H](O)[C@@H](O[C@H]8[C@H](O)[C@@H](O)[C@@H](O[C@H]1[C@H](O)[C@H]2O)O[C@@H]8CSCCC(=O)O)O[C@@H]7CSCCC(=O)O)O[C@@H]6CSCCC(=O)O)O[C@@H]5CSCCC(=O)O)O[C@@H]4CSCCC(=O)O)O[C@@H]3CSCCC(=O)O [SBX, heptakis-(6-deoxy-6-(2-carboxyethyl)thio)-β-CD] | – | 610 ± 45 M⁻¹ | 575 ± 35 M⁻¹ | 12,830 ± 900 M^−1 | – | – | – | – | – | –
3 | O=C(O)CCSC[C@H]1O[C@@H]2O[C@H]3[C@H](O)[C@@H](O)[C@@H](O[C@H]4[C@H](O)[C@@H](O)[C@@H](O[C@H]5[C@H](O)[C@@H](O)[C@@H](O[C@H]6[C@H](O)[C@@H](O)[C@@H](O[C@H]7[C@H](O)[C@@H](O)[C@@H](O[C@H]8[C@H](O)[C@@H](O)[C@@H](O[C@H]9[C@H](O)C(O)[C@@H](O[C@H]1[C@H](O)[C@H]2O)O[C@@H]9CSCCC(=O)O)O[C@@H]8CSCCC(=O)O)O[C@@H]7CSCCC(=O)O)O[C@@H]6CSCCC(=O)O)O[C@@H]5CSCCC(=O)O)O[C@@H]4CSCCC(=O)O)O[C@@H]3CSCCC(=O)O (stereo partly drawn) [SGX, octakis(6-deoxy-6-(2-carboxyethyl)thio)-γ-CD] | 825 ± 65 M⁻¹ | – | 315 ± 20 M⁻¹ | – | 960 ± 95 M⁻¹ | 975 ± 90 M⁻¹ | – | – | – | –
4 | COCC1OC2OC3C(COC)OC(OC4C(COC)OC(OC5C(COC)OC(OC6C(COC)OC(OC7C(COC)OC(OC8C(COC)OC(OC1C(OC)C2OC)C(OC)C8OC)C(OC)C7OC)C(OC)C6OC)C(OC)C5OC)C(OC)C4OC)C(OC)C3OC (stereo not drawn) [TRIME-β-CD, permethylated-β-CD] | 20 ± 3 M⁻¹ | – | < 10 M⁻¹ | – | – | 60 ± 15 M⁻¹ | 20 ± 2 M⁻¹ | 40 ± 10 M⁻¹ | – | –
5 | COC[C@H]1O[C@@H]2O[C@H]3[C@H](OC)[C@@H](OC)[C@@H](O[C@H]4[C@H](OC)[C@@H](OC)[C@@H](O[C@H]5[C@H](OC)[C@@H](OC)[C@@H](O[C@H]6[C@H](OC)[C@@H](OC)[C@@H](O[C@H]7[C@H](OC)[C@@H](OC)[C@@H](O[C@H]8[C@H](OC)[C@@H](OC)[C@@H](O[C@H]9[C@H](OC)[C@@H](OC)[C@@H](O[C@H]1[C@H](OC)[C@H]2OC)O[C@@H]9COC)O[C@@H]8COC)O[C@@H]7COC)O[C@@H]6COC)O[C@@H]5COC)O[C@@H]4COC)O[C@@H]3COC [TRIME-γ-CD, permethylated-γ-CD] | < 10 M⁻¹ | – | < 10 M⁻¹ | – | – | 20 ± 4 M⁻¹ | 25 ± 10 M⁻¹ | 45 ± 14 M⁻¹ | – | –
6 | OC[C@H]1O[C@@H]2O[C@H]3[C@H](O)[C@@H](O)[C@@H](O[C@H]4[C@H](O)[C@@H](O)[C@@H](O[C@H]5[C@H](O)[C@@H](O)[C@@H](O[C@H]6[C@H](O)[C@@H](O)[C@@H](O[C@H]7[C@H](O)[C@@H](O)[C@@H](O[C@H]1[C@H](O)[C@H]2O)O[C@@H]7CO)O[C@@H]6CO)O[C@@H]5CO)O[C@@H]4CO)O[C@@H]3CO [α-CD] | 30 ± 4 M⁻¹ | – | 40 ± 4 M⁻¹ | 50 ± 5 M⁻¹ | – | 30 ± 5 M⁻¹ | 40 ± 5 M⁻¹ | 40 ± 6 M⁻¹ | – | –
7 | OC[C@H]1O[C@@H]2O[C@H]3[C@H](O)[C@@H](O)[C@@H](O[C@H]4[C@H](O)[C@@H](O)[C@@H](O[C@H]5[C@H](O)[C@@H](O)[C@@H](O[C@H]6[C@H](O)[C@@H](O)[C@@H](O[C@H]7[C@H](O)[C@@H](O)[C@@H](O[C@H]8[C@H](O)[C@@H](O)[C@@H](O[C@H]9[C@H](O)[C@@H](O)[C@@H](O[C@H]1[C@H](O)[C@H]2O)O[C@@H]9CO)O[C@@H]8CO)O[C@@H]7CO)O[C@@H]6CO)O[C@@H]5CO)O[C@@H]4CO)O[C@@H]3CO [γ-CD] | 60 ± 10 M⁻¹ | – | 125 ± 10 M⁻¹ | – | – | 90 ± 15 M⁻¹ | 30 ± 3 M⁻¹ | 100 ± 10 M⁻¹ | – | –
8 | acetylated-β-CD [Ac-β-CD] | 220 ± 20 M⁻¹ | – | 100 ± 14 M⁻¹ | 240 ± 20 M⁻¹ | – | 150 ± 15 M⁻¹ | 290 ± 30 M⁻¹ | 310 ± 30 M⁻¹ | 380 ± 30 M⁻¹ | –
9 | carboxyethylated-β-CD [CE-β-CD] | 400 ± 30 M⁻¹ | – | 150 ± 10 M⁻¹ | – | – | 590 ± 40 M⁻¹ | 975 ± 95 M⁻¹ | – | – | 430 ± 25 M⁻¹
10 | carboxymethylated-α-CD [CM-α-CD] | 90 ± 20 M⁻¹ | 90 ± 15 M⁻¹ | 75 ± 9 M⁻¹ | 340 ± 20 M⁻¹ | 150 ± 15 M⁻¹ | 150 ± 15 M⁻¹ | 110 ± 12 M⁻¹ | 240 ± 20 M⁻¹ | 90 ± 12 M⁻¹ | 110 ± 20 M⁻¹
